In ChEMBL document CHEMBL1201862, “PubChem BioAssay data set” (2004):
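A five-concentration, 48-hour dose response in 96-well plates underlies each endpoint, interpolated linearly between surrounding concentrations. Abbreviation: GI50, concentration required for 50% inhibition of growth.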 Calls of active or inactive are those of the source. Rule as the data show it: active = GI50 up to about 1.1 µM and inactive = higher.

Legend:
Experiment in all cases: growth of human tumour cells (NCI), 48 h
BT-549 = tested on: BT-549
SF-295 = tested on: SF-295
SR = tested on: SR
PC-3 = tested on: PC-3
MCF7 = tested on: MCF7
HL-60 = tested on: HL-60
SNB-19 = tested on: SNB-19
UACC-62 = tested on: UACC-62
MDA-N = tested on: MDA-N
T47D = tested on: T47D
ACHN = tested on: ACHN
SNB-75 = tested on: SNB-75
SK-MEL-28 = tested on: SK-MEL-28
SW-620 = tested on: SW-620
Malme-3M = tested on: Malme-3M
HCT-116 = tested on: HCT-116
CAKI-1 = tested on: CAKI-1
786-0 = tested on: 786-0
U-251 = tested on: U-251
SN12C = tested on: SN12C
A549 = tested on: A549
RPMI-8226 = tested on: RPMI-8226
UO-31 = tested on: UO-31
SK-MEL-2 = tested on: SK-MEL-2
HT-29 = tested on: HT-29
MDA-MB-231 = tested on: MDA-MB-231
MOLT-4 = tested on: MOLT-4
TK-10 = tested on: TK-10
CCRF-CEM = tested on: CCRF-CEM
OVCAR-4 = tested on: OVCAR-4
HCT-15 = tested on: HCT-15
OVCAR-8 = tested on: OVCAR-8
SF-539 = tested on: SF-539
NCI-H226 = tested on: NCI-H226
EKVX = tested on: EKVX
OVCAR-3 = tested on: OVCAR-3
MDA-MB-435 = tested on: MDA-MB-435
RXF 393 = tested on: RXF 393
NCI/ADR-RES = tested on: NCI/ADR-RES
A498 = tested on: A498
K562 = tested on: K562
LOX IMVI = tested on: LOX IMVI
SK-OV-3 = tested on: SK-OV-3
M14 = tested on: M14
DU-145 = tested on: DU-145
NCI-H522 = tested on: NCI-H522
KM12 = tested on: KM12
UACC-257 = tested on: UACC-257
IGROV-1 = tested on: IGROV-1
SF-268 = tested on: SF-268
COLO 205 = tested on: COLO 205
OVCAR-5 = tested on: OVCAR-5
Hs-578T = tested on: Hs-578T
HOP-62 = tested on: HOP-62
NCI-H460 = tested on: NCI-H460
SK-MEL-5 = tested on: SK-MEL-5
HCC 2998 = tested on: HCC 2998
NCI-H23 = tested on: NCI-H23

## COC(=O)C1CC2C=CC1N(C(=O)OCc1ccccc1)C2 (centres undefined)
BT-549
  GI50: > 100 µM (inactive)
SF-295
  GI50: > 100 µM (inactive)
SR
  GI50: 59.3 µM (inactive)
PC-3
  GI50: > 100 µM (inactive)
MCF7
  GI50: 98.2 µM (inactive)
HL-60
  GI50: > 100 µM (inactive)
SNB-19
  GI50: > 100 µM (inactive)
UACC-62
  GI50: > 100 µM (inactive)
MDA-N
  GI50: > 100 µM (inactive)
T47D
  GI50: 85.7 µM (inactive)
ACHN
  GI50: > 100 µM (inactive)
SNB-75
  GI50: > 100 µM (inactive)
SK-MEL-28
  GI50: > 100 µM (inactive)
SW-620
  GI50: > 100 µM (inactive)
Malme-3M
  GI50: 26 µM (inactive)
HCT-116
  GI50: > 100 µM (inactive)
CAKI-1
  GI50: > 100 µM (inactive)
786-0
  GI50: > 100 µM (inactive)
U-251
  GI50: > 100 µM (inactive)
SN12C
  GI50: > 100 µM (inactive)
A549
  GI50: > 100 µM (inactive)
RPMI-8226
  GI50: > 100 µM (inactive)
UO-31
  GI50: > 100 µM (inactive)
SK-MEL-2
  GI50: > 100 µM (inactive)
HT-29
  GI50: > 100 µM (inactive)
MDA-MB-231
  GI50: > 100 µM (inactive)
MOLT-4
  GI50: 81.3 µM (inactive)
TK-10
  GI50: > 100 µM (inactive)
CCRF-CEM
  GI50: > 100 µM (inactive)
OVCAR-4
  GI50: > 100 µM (inactive)
HCT-15
  GI50: > 100 µM
OVCAR-8
  GI50: > 100 µM (inactive)
SF-539
  GI50: > 100 µM (inactive)
NCI-H226
  GI50: > 100 µM (inactive)
EKVX
  GI50: 91.4 µM (inactive)
OVCAR-3
  GI50: > 100 µM (inactive)
MDA-MB-435
  GI50: > 100 µM (inactive)
RXF 393
  GI50: > 100 µM (inactive)
NCI/ADR-RES
  GI50: > 100 µM (inactive)
A498
  GI50: > 100 µM (inactive)
K562
  GI50: > 100 µM (inactive)
LOX IMVI
  GI50: > 100 µM (inactive)
SK-OV-3
  GI50: > 100 µM (inactive)
M14
  GI50: > 100 µM (inactive)
DU-145
  GI50: > 100 µM (inactive)
NCI-H522
  GI50: 0.82 µM (active)
KM12
  GI50: > 100 µM (inactive)
UACC-257
  GI50: > 100 µM (inactive)
IGROV-1
  GI50: > 100 µM (inactive)
SF-268
  GI50: > 100 µM (inactive)
COLO 205
  GI50: > 100 µM (inactive)
OVCAR-5
  GI50: > 100 µM (inactive)
Hs-578T
  GI50: > 100 µM (inactive)
HOP-62
  GI50: > 100 µM (inactive)
NCI-H460
  GI50: > 100 µM (inactive)
SK-MEL-5
  GI50: 92 µM (inactive)
HCC 2998
  GI50: > 100 µM (inactive)
NCI-H23
  GI50: > 100 µM (inactive)

## COc1ccc(OC)c2c(=O)cc(-c3ccccc3)[nH]c12
BT-549
  GI50: > 100 µM (inactive)
SF-295
  GI50: > 100 µM (inactive)
SR
  GI50: > 100 µM (inactive)
PC-3
  GI50: > 100 µM (inactive)
MCF7
  GI50: > 100 µM (inactive)
HL-60
  GI50: > 100 µM (inactive)
SNB-19
  GI50: > 100 µM (inactive)
UACC-62
  GI50: > 100 µM (inactive)
MDA-N
  GI50: > 100 µM (inactive)
T47D
  GI50: > 100 µM (inactive)
ACHN
  GI50: > 100 µM (inactive)
SNB-75
  GI50: 93.3 µM (inactive)
SK-MEL-28
  GI50: > 100 µM (inactive)
SW-620
  GI50: > 100 µM (inactive)
Malme-3M
  GI50: > 100 µM (inactive)
HCT-116
  GI50: > 100 µM (inactive)
786-0
  GI50: > 100 µM (inactive)
U-251
  GI50: > 100 µM (inactive)
SN12C
  GI50: > 100 µM (inactive)
A549
  GI50: > 100 µM (inactive)
RPMI-8226
  GI50: > 100 µM (inactive)
UO-31
  GI50: > 100 µM (inactive)
SK-MEL-2
  GI50: > 100 µM (inactive)
HT-29
  GI50: > 100 µM (inactive)
MDA-MB-231
  GI50: > 100 µM (inactive)
MOLT-4
  GI50: > 100 µM (inactive)
TK-10
  GI50: > 100 µM (inactive)
CCRF-CEM
  GI50: > 100 µM (inactive)
OVCAR-4
  GI50: > 100 µM (inactive)
HCT-15
  GI50: > 100 µM
OVCAR-8
  GI50: > 100 µM (inactive)
NCI-H226
  GI50: > 100 µM (inactive)
EKVX
  GI50: > 100 µM (inactive)
OVCAR-3
  GI50: > 100 µM (inactive)
MDA-MB-435
  GI50: > 100 µM (inactive)
RXF 393
  GI50: > 100 µM (inactive)
NCI/ADR-RES
  GI50: > 100 µM (inactive)
A498
  GI50: > 100 µM (inactive)
K562
  GI50: > 100 µM (inactive)
LOX IMVI
  GI50: > 100 µM (inactive)
SK-OV-3
  GI50: > 100 µM (inactive)
M14
  GI50: > 100 µM (inactive)
DU-145
  GI50: > 100 µM (inactive)
NCI-H522
  GI50: 7.45 µM (inactive)
KM12
  GI50: > 100 µM (inactive)
UACC-257
  GI50: > 100 µM (inactive)
IGROV-1
  GI50: > 100 µM (inactive)
SF-268
  GI50: > 100 µM (inactive)
COLO 205
  GI50: > 100 µM (inactive)
OVCAR-5
  GI50: > 100 µM (inactive)
Hs-578T
  GI50: > 100 µM (inactive)
HOP-62
  GI50: > 100 µM (inactive)
NCI-H460
  GI50: > 100 µM (inactive)
SK-MEL-5
  GI50: > 10 µM (inactive)
HCC 2998
  GI50: > 100 µM (inactive)
NCI-H23
  GI50: > 100 µM (inactive)
